Laboratory results reported in patent US10807960B2, “Compounds, compositions, and methods for controlling biofilms” (KATHOLIEKE UNIVERSITEIT LEUVEN, priority 2015, dated 2020).
Where two headings read alike, the source gives them in different places.

Key:
[1] = tested on: E. coli TG1; assay: static peg (Calgary Biofilm Device) anti-biofilm assay, crystal violet and OD600
[2] = tested on: C. albicans SC5314 + S. epidermidis; assay: mixed C. albicans/S. epidermidis biofilm assay, selective plating; assay type: cell-based, Candida albicans; Staphylococcus epidermidis; conditions: for activity at 25 µM: 25 μM (Table 5); for activity at 100 µM: 100 μM (Table 5)
Description: The concentrations 25 μM (0.0625% DMSO or ethanol) and 100 μM (0.25% DMSO or ethanol) were tested. After 24 h of incubation at 37° C., biofilms were washed with PBS and fresh medium with or without compounds was added. After further incubation for 48 h at 37° C., the biofilms were washed with PBS after which the cells were re-suspended in 100 μl of PBS by scraping off, sonication (1 min, 45 kHz, USC300-T; VWR, Radnor, Pa., USA) and vigorously pipetting up-and-down. Finally, the biofilm cells were diluted in PBS and plated on YPD agar plates containing 100 mg/L ampicillin and TSA plates containing 25 mg/L amphotericin B, to determine the number of fungal and bacterial CFUs after 2 days of incubation at 37° C., respectively. The percentage of C. albicans SC5314 and S. epidermidis cells was determined relative to the DMSO or ethanol control treatment.

[3] = tested on: osteoblasts (OB); assay: osteogenic differentiation, calcium and DNA assay; assay type: cell-based, human; conditions: 12.5 μM, calcium content normalized by DNA, versus solvent control
Description: (§1) The effect on osteogenic differentiation potential was assessed as previously described. Only the substances that allowed survival of the cells for more than 3 weeks, which is the time needed for mature osteogenic differentiation, were tested. Briefly, osteoblasts and bone-marrow derived mesenchymal stem cells were cultured in a positive solvent control (osteogenic medium with 0.5% DMSO or ethanol background), a negative control (medium without osteogenic supplements) and treated samples (osteogenic medium, 0.5% DMSO or ethanol background and 12.5 μM of test compound) with four repeats per condition. Mesenchymal stem cells and osteoblast cell cultures were harvested after 3 or 5 weeks, respectively, for the calcium and DNA assay.
(§2) Calcium deposition of osteoblasts and mesenchymal stem cells was measured with the Calcium CPC LiquiColor test (Stanbio Laboratory, Boerne, Tex.) as previously described. Briefly, cell cultures were extracted with 5% trichloroacetic acid (500 μl per sample), O-cresolphtalein complex was added, and the calcium content was determined spectrophotometrically at 550 nm. DNA content was determined as previously described. DNA values were used to normalize the calcium content. Four wells per condition were examined, and two samples from each well were taken for each assay.

[4] = tested on: bone-marrow derived mesenchymal stem cells (MSC); assay: osteogenic differentiation, calcium and DNA assay; assay type: cell-based, human; conditions: 12.5 μM, calcium content normalized by DNA, versus solvent control
Description: as §1, §2

[5] = tested on: bone-marrow derived mesenchymal stem cells (MSC); assay: mammalian-cell viability assay, trypan blue staining; assay type: cell-based; conditions: 12.5 μM, 6 days exposure
Description: (§3) Cell viability of two human primary cell types, namely, osteoblasts (OB) and bone-marrow derived mesenchymal stem cells (MSC) was tested according to the ISO 10993-5 standard, as previously described. Briefly, cells were seeded in 96-well tissue culture test plates (TPP, Switzerland) at 5×10^3 cells/cm^2 in Advanced DMEM cell culture media supplemented with 10% serum, 1× GlutaMAX, 0.05 mg/mL Gentamycin, and were allowed to attach overnight. The next day, the cells were exposed to (i) cell culture medium and medium with the corresponding control (0.5% ethanol or DMSO) (negative controls), (ii) medium with 0.05% phenol (cytotoxic control), and (iii) medium with compounds (12.5 μM) and incubated for 2 h, 48 h and 6 days (8 repeats for each condition). At each time-point the numbers of viable and dead cells were determined directly by trypan blue staining, and indirectly by measuring the metabolic activity with MTT (3-(4,5-dimethylthiazol-2-yl)-2,5-diphenyltetrazolium bromide) staining.
(§4) The medium was removed from the wells, and 1/3 trypan blue in Dulbecco's modified Eagle's medium (DMEM) was added to the cells, incubated for 3 min, after which trypan blue was removed and DMEM medium was added to the wells. In each of four wells, two microscopy fields were counted for viable (transparent) and dead (blue) cells.

[6] = tested on: E. coli TG1 + P. aeruginosa PA14; assay: mixed E. coli/P. aeruginosa biofilm assay, crystal violet; assay type: cell-based
Description: Overnight cultures of E. coli TG1 and P. aeruginosa PA14, were diluted 1/100 in the same vial of TSB 1/20 to form a mixed culture suspension.

[7] = tested on: osteoblasts (OB); assay: mammalian-cell viability assay, trypan blue staining; assay type: cell-based; conditions: 12.5 μM, 6 days exposure
Description: as §3, §4

[8] = tested on: C. albicans SC5314; assay: inhibition of C. albicans biofilms, cell titer blue (CTB) quantification; assay type: cell-based, Candida albicans; conditions: monospecies biofilm; novel compounds: highest concentration tested 100 μM
Description: The potential of the compounds to prevent C. albicans SC5314 biofilm formation was assessed using the cell titer blue (CTB) quantification method (26). For the CTB method, an overnight culture of C. albicans SC5314 was washed with PBS and a cell suspension of 10^6 cells/ml (OD600=0.1) was prepared in RPMI 1640 medium (pH 7.0). […] After 16 h of static incubation at 37° C., biofilms were washed and quantified with CTB as described previously.

[9] = tested on: osteoblasts (OB); assay: metabolic activity, MTT staining; assay type: cell-based; conditions: 12.5 μM, 6 days treatment
Description: as §3
(§5) The medium was removed from the wells and 100 μl of medium, supplemented with 10% serum and 0.5 mg/mL MTT was added to the cells. The cells were incubated overnight at 37° C. and 5% CO2. The next day the medium with MTT was removed and 100 μl acidic isopropanol was added. The cells were then centrifuged at 2300 g and 50 μl of the supernatant was transferred to a new 96-well plate. The absorbance was measured at 570 nm and the background was measured at 660 nm. Four wells per condition were examined.

[10] = tested on: bone-marrow derived mesenchymal stem cells (MSC); assay: metabolic activity, MTT staining; assay type: cell-based; conditions: 12.5 μM, 6 days treatment
Description: as §3, §5

[11] = C. albicans in mixed biofilm with S. epidermidis, read-out: CFUs % survival C.a.
[12] = S. epidermidis in mixed biofilm with C. albicans, read-out: CFUs % survival S.c.
[13] = S. epidermidis in mixed biofilm with C. albicans, read-out: CFUs % survival Se.

Row | Compound | anti-biofilm activity (in words) ([1]; biofilm cells at 25° C.) | activity at 25 µM [2, 11] [%] | activity at 25 µM [2, 12] [%] | activity at 100 µM [2, 13] [%] | calcium deposition (in words) [3] | calcium deposition (in words) [4] | activity at 100 µM [2, 11] [%] | proliferation (in words) [5] | inhibition of the mixed biofilm P. aeruginosa/E. coli (in words) [6] | proliferation (in words) [7] | anti-biofilm activity (in words) [8] | metabolic activity compared to the solvent control (in words) [9] | metabolic activity compared to the solvent control (in words) [10] | anti-biofilm activity (in words) ([1]; biofilm at 37° C.)
1 | CCCCCCCCn1c(-c2ccc(Cl)cc2)cnc1NCC(C)C [Compound 8b, 5-(4-chlorophenyl)-N-isobutyl-1-octyl-1H-imidazol-2-amine] | potent activity | 2 | 6.1 | 0.7 | induced the calcium deposition | induced the calcium deposition |  |  |  |  |  |  |  | 
2 | CCCCCCCCn1c(-c2ccc(Cl)cc2)cnc1NC1CCCC1 [Compound 8f, 5-(4-chlorophenyl)-N-cyclopentyl-1-octyl-1H-imidazol-2-amine] | potent activity | 2.9 | 2.5 | 0.3 |  |  | 7.2 | slightly reduced | at higher concentrations |  |  |  |  | 
3 | CCCCCCCCn1c(-c2ccc(Cl)c(Cl)c2)cnc1NC1CCCC1 [Compound 8h, 5-(3,4-dichlorophenyl)-N-cyclopentyl-1-octyl-1H-imidazol-2-amine] |  | 6.7 | 2 | 2.2 | induced the calcium deposition | induced the calcium deposition | 3.5 |  |  | increase in proliferation | not active | increased | increased | 
4 | CCCCCCCCn1c(-c2ccccc2)cnc1NCC(C)C [Compound 8a, N-isobutyl-1-octyl-5-phenyl-1H-imidazol-2-amine] | potent activity |  |  | 1 |  |  | 1 | slightly reduced | strongly inhibited | slightly reduced |  |  |  | showed activity
